From PubChem BioAssay (NCI)
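Dose response: 5 concentrations. Exposure: 48 h. Format: 96-well plates. Endpoint: linear interpolation; highest concentration if not reached. The concentration for full growth arrest is given as TGI.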

Assays:
Assay in all cases: growth of human tumour cells (NCI), 48 h
[1] = tested on: A498 renal
[2] = tested on: U251 CNS
[3] = tested on: SK-MEL-28 melanoma
[4] = tested on: SNB-75 CNS
[5] = tested on: DU-145 prostate
[6] = tested on: HCC-2998 colon
[7] = tested on: PC-3 prostate
[8] = tested on: M14 melanoma
[9] = tested on: KM12 colon
[10] = tested on: SF-268 CNS
[11] = tested on: MCF7 breast
[12] = tested on: SK-OV-3 ovarian
[13] = tested on: SF-295 CNS
[14] = tested on: MDA-MB-231 breast
[15] = tested on: OVCAR-8 ovarian
[16] = tested on: NCI-H460 lung
[17] = tested on: OVCAR-5 ovarian
[18] = tested on: BT-549 breast
[19] = tested on: NCI-H226 lung
[20] = tested on: A549 NSCLC
[21] = tested on: OVCAR-4 ovarian
[22] = tested on: RPMI-8226 leukemia
[23] = tested on: UACC-257 melanoma
[24] = tested on: MDA-MB-435
[25] = tested on: 786-0 renal
[26] = tested on: HT29 colon
[27] = tested on: EKVX NSCLC
[28] = tested on: CCRF-CEM leukemia
[29] = tested on: MDA-N
[30] = tested on: SNB-19 CNS
[31] = tested on: RXF 393 renal
[32] = tested on: UO-31 renal
[33] = tested on: COLO 205 colon
[34] = tested on: SF-539 CNS
[35] = tested on: HCT-116 colon
[36] = tested on: CAKI-1 renal
[37] = tested on: MOLT-4 leukemia
[38] = tested on: UACC-62 melanoma
[39] = tested on: SN12C renal
[40] = tested on: NCI-H23 lung
[41] = tested on: MALME-3M melanoma
[42] = tested on: SK-MEL-2 melanoma
[43] = tested on: SW-620 colon
[44] = tested on: HOP-62 NSCLC
[45] = tested on: K-562 leukemia
[46] = tested on: HCT-15 colon
[47] = tested on: NCI/ADR-RES ovarian
[48] = tested on: T-47D breast
[49] = tested on: ACHN renal
[50] = tested on: OVCAR-3 ovarian
[51] = tested on: IGROV1 ovarian
[52] = tested on: SR leukemia
[53] = tested on: TK-10 renal
[54] = tested on: HL-60(TB) leukemia
[55] = tested on: LOX IMVI melanoma
[56] = tested on: SK-MEL-5 melanoma
[57] = tested on: NCI-H522 lung

CC(C)(C)OC/C=C(\Br)CO
TGI [1]: > 100 µM
TGI [2]: > 100 µM
TGI [3]: > 100 µM
TGI [4]: > 100 µM
TGI [5]: > 100 µM
TGI [6]: > 100 µM
TGI [7]: > 100 µM
TGI [8]: > 100 µM
TGI [9]: > 100 µM
TGI [10]: > 100 µM
TGI [11]: > 100 µM
TGI [12]: > 100 µM
TGI [13]: > 100 µM
TGI [14]: > 100 µM
TGI [15]: > 100 µM
TGI [16]: > 100 µM
TGI [17]: > 100 µM
TGI [18]: > 100 µM
TGI [19]: > 100 µM
TGI [20]: > 100 µM
TGI [21]: > 100 µM
TGI [22]: > 100 µM
TGI [23]: > 100 µM
TGI [24]: > 100 µM
TGI [25]: > 100 µM
TGI [26]: > 100 µM
TGI [27]: > 100 µM
TGI [28]: > 100 µM
TGI [29]: > 100 µM
TGI [30]: > 100 µM
TGI [31]: > 100 µM
TGI [32]: > 100 µM
TGI [33]: > 100 µM
TGI [34]: > 100 µM
TGI [35]: > 100 µM
TGI [36]: > 100 µM
TGI [37]: > 100 µM
TGI [38]: > 100 µM
TGI [39]: > 100 µM
TGI [40]: > 100 µM
TGI [41]: > 100 µM
TGI [42]: > 100 µM
TGI [43]: > 100 µM
TGI [44]: > 100 µM
TGI [45]: > 100 µM
TGI [46]: > 100 µM
TGI [47]: > 100 µM
TGI [48]: > 100 µM
TGI [49]: > 100 µM
TGI [50]: > 100 µM

CCCCN(CCCC)CC(O)c1cc(-c2ccc(Cl)c(Cl)c2)nc2c(Cl)cc(Cl)cc12 (stereo not drawn)
TGI [1]: > 100 µM
TGI [51]: > 100 µM
TGI [2]: > 100 µM
TGI [3]: > 100 µM
TGI [52]: > 100 µM
TGI [4]: > 100 µM
TGI [5]: > 100 µM
TGI [6]: > 100 µM
TGI [7]: > 100 µM
TGI [10]: > 100 µM
TGI [53]: > 100 µM
TGI [11]: > 100 µM
TGI [12]: > 100 µM
TGI [13]: > 100 µM
TGI [54]: > 100 µM
TGI [14]: > 100 µM
TGI [15]: > 100 µM
TGI [55]: > 100 µM
TGI [16]: > 100 µM
TGI [17]: > 100 µM
TGI [21]: > 100 µM
TGI [22]: > 100 µM
TGI [23]: > 100 µM
TGI [24]: > 100 µM
TGI [25]: > 100 µM
TGI [26]: > 100 µM
TGI [27]: > 100 µM
TGI [28]: > 100 µM
TGI [29]: > 100 µM
TGI [30]: > 100 µM
TGI [32]: > 100 µM
TGI [33]: > 100 µM
TGI [34]: > 100 µM
TGI [35]: > 100 µM
TGI [37]: > 100 µM
TGI [38]: > 100 µM
TGI [39]: > 100 µM
TGI [40]: > 100 µM
TGI [41]: > 100 µM
TGI [42]: > 100 µM
TGI [43]: 39.1 µM
TGI [44]: > 100 µM
TGI [46]: > 100 µM
TGI [47]: > 100 µM
TGI [48]: > 100 µM
TGI [49]: > 100 µM
TGI [50]: > 100 µM

CC(C)=CCC/C(C)=C/CCC(C(=O)COCc1ccccc1)P1(=O)OC(C)(C)CN1C(C)(C)C (stereo not drawn)
TGI [51]: > 100 µM
TGI [2]: > 100 µM
TGI [3]: > 100 µM
TGI [52]: 46.5 µM
TGI [4]: > 100 µM
TGI [5]: > 100 µM
TGI [7]: > 100 µM
TGI [8]: > 100 µM
TGI [9]: > 100 µM
TGI [10]: > 100 µM
TGI [53]: > 100 µM
TGI [11]: > 100 µM
TGI [12]: > 100 µM
TGI [13]: > 100 µM
TGI [14]: > 100 µM
TGI [55]: > 100 µM
TGI [16]: > 100 µM
TGI [17]: > 100 µM
TGI [18]: > 100 µM
TGI [19]: > 100 µM
TGI [20]: > 100 µM
TGI [21]: 81.2 µM
TGI [23]: > 100 µM
TGI [24]: > 100 µM
TGI [25]: > 100 µM
TGI [26]: > 100 µM
TGI [27]: > 100 µM
TGI [28]: 93.7 µM
TGI [29]: > 100 µM
TGI [30]: > 100 µM
TGI [56]: > 100 µM
TGI [31]: > 100 µM
TGI [32]: > 100 µM
TGI [57]: > 100 µM
TGI [33]: > 100 µM
TGI [34]: > 100 µM
TGI [35]: > 100 µM
TGI [36]: > 100 µM
TGI [37]: 38.6 µM
TGI [38]: > 100 µM
TGI [39]: > 100 µM
TGI [40]: > 100 µM
TGI [42]: > 100 µM
TGI [43]: > 100 µM
TGI [44]: > 100 µM
TGI [45]: 73.9 µM
TGI [46]: > 100 µM
TGI [47]: > 100 µM
TGI [48]: > 100 µM
TGI [49]: > 100 µM
TGI [50]: > 100 µM
